Paper PMC7926793, “Synthesis and Biological Evaluation of 1-(Diarylmethyl)-1H-1,2,4-triazoles and 1-(Diarylmethyl)-1H-imidazoles as a Novel Class of Anti-Mitotic Agent for Activity in Breast Cancer” (Pharmaceuticals, 2021)

Key:
[1] = tested on: MCF-7 human breast cancer cells; assay: alamarBlue cell viability assay; format: cell-based; conditions: Homo sapiens, 72 h; for IC50: MCF7, 72 h, alamarBlue, read-out: Antiproliferative Activity MCF-7 Cells IC50
Experimental: (§1) The human breast carcinoma cell line MCF-7 was purchased from the European Collection of Animal Cell Cultures (ECACC) and cultured in Eagles minimum essential medium with 10% foetal bovine serum, 2 mM L-glutamine, and 100 μg/mL penicillin/streptomycin. The medium was supplemented with 1% non-essential amino acids. The human breast carcinoma cell line MDA-MB-231 was purchased from the ECACC. MDA-MB-231 cells were maintained in Dulbecco’s modified Eagle’s medium (DMEM) supplemented with 10% (v/v) foetal bovine serum, 2 mM L-glutamine, and 100 μg/mL penicillin/streptomycin (complete medium). HL-60 cells were derived from a patient with acute myeloid leukaemia and were obtained from the ECACC (Salisbury, UK). Cells were cultured in RPMI-1640 Glutamax medium supplemented with 10% FCS media and 100 μg/mL penicillin/streptomycin. MCF-10A cells were obtained as a kind gift from Dr Susan McDonnell, School of Chemical and Bioprocess Engineering, University College Dublin and were cultured in Dulbecco’s Modified Eagle Medium: Nutrient Mixture F-12 (DMEM/F12; Gibco) supplemented with 5% horse serum (Invitrogen), 20 ng mL^−1 epidermal growth factor (Merck Millipore), 0.5 μg mL^−1 hydrocortisone (Sigma,-Aldrich, Arklow, Co. Wicklow, Ireland), 100 ng mL^−1 cholera toxin (Sigma, Aldrich, Arklow, Co. Wicklow, Ireland), 10 μg mL^−1 insulin (Sigma, Aldrich, Arklow, Co. Wicklow, Ireland), and penicillin/streptomycin 5000 U mL^−1 (1%)(Gibco, Biosciences, 3 Charlemont Terrace, Crofton Road, Dun Laoghaire, Co Dublin, A96 K7H7, Ireland). Cells were maintained at 37 °C in 5% CO2 in a humidified incubator. All cells were sub-cultured 3 times/week by trypsinisation using TrypLE Express (1×).
(§2) Cells were seeded at a density of 2.5 × 10^4 cells/well (MCF-7, MDA-MB-231, MCF-10A cells) and 1 × 10^4 cells/well (HL-60) in 96-well plates (200 μL per well). After 24 h, cells were then treated with either medium alone, vehicle control (1% ethanol (v/v)) or with serial dilutions of CA-4 (4a), phenstatin (7a) or selected compounds (0.001–100 μM) in triplicate. Cell proliferation for MCF-7, MDA-MB-231, and MCF-10A cells was analysed using the alamarBlue assay (Invitrogen Corp.) according to the manufacturer’s instructions. After 67–69 h, alamarBlue (10% (v/v)) was added to each well, and plates were incubated for 3–5 h at 37 °C in the dark. Fluorescence was read using a 96-well fluorimeter with excitation at 530 nm and emission at 590 nm. Results were expressed as percentage viability relative to vehicle control (100%).

[2] = tested on: MDA-MB-231 human breast cancer cells; assay: alamarBlue cell viability assay; format: cell-based; conditions: Homo sapiens, MDA-MB-231, 72 h, read-out: Antiproliferative Activity MDA-MB-231 Cells IC50
Experimental: as §1, §2

HL-60 leukaemia cells = assay: cell viability assay; format: cell-based; conditions: Homo sapiens, read-out: Antiproliferative Activity HL-60 Cells IC50
Experimental: as §1, with “Cells were maintained at 37 °C in 5% CO2 in a humidified incubator. All cells were sub-cultured 3 times/week by trypsinisation using TrypLE Express (1×).” left out
Cells were seeded at a density of 2.5 × 10^4 cells/well (MCF-7, MDA-MB-231, MCF-10A cells) and 1 × 10^4 cells/well (HL-60) in 96-well plates (200 μL per well). […] Cell proliferation for MCF-7, MDA-MB-231, and MCF-10A cells was analysed using the alamarBlue assay (Invitrogen Corp.) according to the manufacturer’s instructions. […] Fluorescence was read using a 96-well fluorimeter with excitation at 530 nm and emission at 590 nm. Results were expressed as percentage viability relative to vehicle control (100%).

[3] = tested on: tubulin (microtubule network) in MCF-7 cells; assay: immunofluorescence confocal microscopy of microtubule network; format: cell-based, human; conditions: 1 μM, 16 h
Experimental: Confocal microscopy was used to study the effects of drug treatment on MCF-7 cytoskeleton. For immunofluorescence, MCF-7 cells were seeded at 1 × 10^5 cells/mL on eight chamber glass slides (BD Biosciences). […] Following treatment, cells were gently washed in PBS, fixed for 20 min with 4% paraformaldehyde in PBS, and permeabilised in 0.5% Triton X-100. Following washes in PBS containing 0.1% Tween (PBST), cells were blocked in 5% bovine serum albumin diluted in PBST. […] Following washes in PBST, the cells were mounted in Ultra Cruz Mounting Media (Santa Cruz Biotechnology, Santa Cruz, CA) containing 4,6-diamino-2-phenolindol dihydrochloride (DAPI). Images were captured by Leica SP8 confocal microscopy with Leica application suite X software. All images in each experiment were collected on the same day using identical parameters. Experiments were performed on three independent occasions.

[4] = MCF7, read-out: cell viability (viable cells)

| Compound | melting point [°C] | viability at 1 µM [1, 4] [%] | further results |
| --- | --- | --- | --- |
| COc1cc(C(c2cc(OC)c(OC)c(OC)c2)n2ccnc2)cc(OC)c1OC [21i, 1-(Bis(3,4,5-Trimethoxyphenyl)Methyl)-1H-Imidazole] | 154 to 156 |  |  |
| O=[N+]([O-])c1ccc(C(c2ccccc2)n2ccnc2)cc1 (stereo not drawn) [20b] |  | 73 |  |
| COc1ccc(/C=C\c2cc(OC)c(OC)c(OC)c2)cc1O [CA-4, reference compound] |  | 24 | IC50 [2]: 43 nM; IC50 [1]: 3.9 ± 0.32 nM; IC50 (HL-60 leukaemia cells): 1.9 ± 0.5 nM |
| COc1ccc(C(c2cc(OC)c(OC)c(OC)c2)n2cncn2)cc1 (stereo not drawn) [16c] |  | 75 |  |
| Brc1ccc(C(c2ccccc2)N2CCCC2)cc1 (stereo not drawn) [25b, 1-((4-Bromophenyl)(Phenyl)methyl)Pyrrolidine] | 70 to 72 |  |  |
| COc1ccc(C(c2cc(OC)c(OC)c(OC)c2)n2cncn2)cc1OCc1ccccc1 (stereo not drawn) [19a, 1-((3-(Benzyloxy)-4-Methoxyphenyl)(3,4,5-Trimethoxyphenyl)Methyl)-1H-1,2,4-Triazole] | 98 to 100 |  |  |
| Brc1ccc(C(c2ccccc2)n2ccnc2)cc1 (stereo not drawn) [20c, 1-((4-Bromophenyl)(Phenyl)methyl)-1H-Imidazole] | 126 to 128 |  |  |
| Fc1ccc(C(c2ccccc2)n2ccnc2)cc1 (stereo not drawn) [20d] |  | 67 |  |
| Fc1ccc(C(c2ccccc2)n2cncn2)cc1 (stereo not drawn) [13c, 1-((4-Fluorophenyl)(Phenyl)Methyl)-1H-1,2,4-Triazole] | 96 to 99 |  |  |
| CCOc1ccc(C(c2ccccc2)n2cncn2)cc1 (stereo not drawn) [13l, 1-((4-Ethoxyphenyl)(Phenyl)Methyl)-1H-1,2,4-Triazole] | 98 to 100 |  |  |
| COc1cc(C(c2ccccc2)n2cncn2)cc(OC)c1OC (stereo not drawn) [16e, 1-(Phenyl(3,4,5-Trimethoxyphenyl)Methyl)-1H-1,2,4-Triazole] | 139 to 140 |  |  |
| COc1ccc(C(c2ccccc2)N2CCCC2)cc1 (stereo not drawn) [25d] |  | 80 |  |
| N#Cc1ccc(C(c2ccc(O)cc2)n2cncn2)cc1 (stereo not drawn) [19i, 4-((4-Hydroxyphenyl)(1H-1,2,4-Triazol-1-yl)Methyl)Benzonitrile] |  |  | IC50 [1]: > 100000 nM |
| CC(=O)O[C@H]1C(=O)[C@@]2(C)[C@H]([C@H](OC(=O)c3ccccc3)[C@]3(O)C[C@H](OC(=O)[C@H](O)[C@@H](NC(=O)c4ccccc4)c4ccccc4)C(C)=C1C3(C)C)[C@]1(OC(C)=O)CO[C@@H]1C[C@@H]2O [paclitaxel, reference compound] |  |  | effect on microtubule network of MCF-7 cells [3]: Hyperpolymerisation of tubulin |
| COc1ccc(C(c2cc(OC)c(OC)c(OC)c2)N2CCN(c3ccc(C)cc3)CC2)cc1 (stereo not drawn) [27f] |  | 76 | viability at 0.1 µM ([1]; MCF7, 0.1 μM, read-out: cell viability (viable cells)): 84%; viability at 10 µM [1, 4]: 42% |
| c1ccc(COc2ccc(C(c3ccccc3)n3cncn3)cc2)cc1 (stereo not drawn) [13j, 1-((4-(Benzyloxy)Phenyl)(Phenyl)Methyl)-1H-1,2,4-Triazole] | 132 to 134 |  |  |
| COc1ccc(C(c2cc(OC)c(OC)c(OC)c2)N2CCN(c3ccccc3)CC2)cc1OCc1ccccc1 (stereo not drawn) [27g, 1-((3-(Benzyloxy)-4-Methoxyphenyl)(3,4,5-Trimethoxyphenyl)Methyl)-4-Phenylpiperazine] | 124 to 126 |  |  |
| N#Cc1ccc(C(c2ccc(OCc3ccccc3)cc2)n2cncn2)cc1 (stereo not drawn) [19g, 4-((4-(Benzyloxy)Phenyl)(1H-1,2,4-Triazol-1-yl)Methyl)Benzonitrile] | 79 to 81 |  |  |
| O=C(Nc1ccc(C(c2ccccc2)n2cncn2)cc1)C(F)(F)F (stereo not drawn) [13i, 2,2,2-Trifluoro-N-(4-(Phenyl(1H-1,2,4-Triazol-1-yl)Methyl)Phenyl)Acetamide] | 143 to 145 |  |  |
| Oc1ccc(C(c2ccccc2)n2cncn2)cc1 (stereo not drawn) [13n, 4-(Phenyl(1H-1,2,4-Triazol-1-yl)Methyl)Phenol] | 189 to 191 |  |  |
| Nc1ccc(C(c2ccccc2)n2cncn2)cc1 (stereo not drawn) [13m, 4-(Phenyl(1H-1,2,4-Triazol-1-yl)Methyl)Aniline] | 149 to 151 | 72 |  |
| COc1ccc(C(c2ccc(C#N)cc2)n2cncn2)cc1OCc1ccccc1 (stereo not drawn) [19f, 4-((3-(Benzyloxy)-4-Methoxyphenyl)(1H-1,2,4-Triazol-1-yl)Methyl)Benzonitrile] | 91 to 93 |  |  |
| COc1ccc(C(c2cc(OC)c(OC)c(OC)c2)N2CCN(c3ccccc3)CC2)cc1O (stereo not drawn) [27i, 2-Methoxy-5-((4-Phenylpiperazin-1-yl)(3,4,5-Trimethoxyphenyl)Methyl)Phenol] |  |  | viability at 10 µM [1, 4]: 48% |
| COc1ccc(C(c2ccc(C#N)cc2)n2cncn2)cc1O (stereo not drawn) [19h, 4-((3-Hydroxy-4-Methoxyphenyl)(1H-1,2,4-Triazol-1-yl)Methyl)Benzonitrile] | 168 to 170 |  | IC50 [1]: > 100000 nM |
| Oc1ccc(C(c2ccc(O)cc2)n2cncn2)cc1 [13o] |  | 68 |  |
| COc1cc(C(c2ccc(F)cc2)n2cncn2)cc(OC)c1OC (stereo not drawn) [16g] |  | 77 |  |
